What was measured:
[1] = test system: CD44; assay: Cell surface expression of CD44 in human neutrophils (immunofluorescence flow cytometry); format: cell-based; conditions: Medium = 100
Source text: (§1) Isolation and treatment of neutrophils.
Monoclonal antibodies. […] The antibodies are commercially available.
Immunofluorescence flow cytometry. […] Results were expressed as relative MFI (rMFI), such that
rMFI=(MFIagent×100)/MFImedium
Background fluorescence was substracted from all values.

[2] = test system: neutrophils; assay: Toxicity for neutrophils; format: cell-based, human
Source text: as §1

[3] = test system: Mouse bone marrow derived macrophages; assay: Superoxide anion generation in macrophages (lucigenin chemoluminescent assay); format: cell-based; conditions: 1 or 3 μg/ml, 24 h; Zymosan-initiated; versus untreated controls (FIG. 2)
Description: Mouse bone marrow derived macrophages were incubated for 24 h at 37° C. in MEM+10% FCS to a concentration of 10^6 cells/ml in the absence or presence of ELPs IES01 and IEC01 at the concentration of 1 or 3 μg/ml. The O2^− free radicals were measured in a chemoluminescent assay that detects the photons generated by the reaction of superoxid anions with lucigenin. The liberated photons are counted with a luminometer Microlumat LB96P, Berthold, Wildbad, Germany. Collected macrophages are resuspended in 0.2 ml at a concentration of 10^6/ml in HEPES buffered medium containing 540 μg/ml lucigenin. Superoxid production is initiated by adding 50 mg of Zymosan and the emission of photons is measured with a luminometer for 2 h.

[4] = test system: bentonite-induced skin edema in mice; assay: Bentonite-induced skin edema in mice; format: in vivo; conditions: for Area (area below the curve of difference between right and left pad diameter) / Inhibition of the inflammatory process: mice; for Inhibition of the inflammatory process: versus inflamed control
Source text: Mice were individually identified with an ear code and were kept in groups of 6 per cage (Makrolon: 47.6×22.7×14.5 cm). Each cage was individually labelled with the n^o. of the study, type of treatment, doses used and route of administration, as well as the name of the director of the study, number and gender of contained animals, date of arrival and of the beginning of the experiment.
The animals had free access to mouse standard chow (UAR A04C; Usine d'Alimentation Rationelle, 91360-Villemoisson sur Orge, Francia; lot nos. 70520 and 70722). Drinking water access was ad libitum. The water, supplied by the Compañia de Aguas de Sabadell, S.A., is routinely analysed for the presence of possible contaminants. The temperature in the animal rooms was 22±3° C., with sporadic peaks of 26° C.; air humidity was 60±10%, with sporadic peaks of 80%. Daily light (between 7:00 h and 19:00 h) and dark phases were installed automatically.
Upon arrival, all animals were allowed to rest in the facilities for 8 days before use in the experiment. Table 2 indicates the six random groups of 10 mice each were set for experimentation.
The diameter of both hind pads of all mice was measured at day 0 and set as the basal value. Edema was then induced by injecting s.c. 13.3 mg/ml bentonite in 0.03 ml PBS into the right food pad. The corresponding mice were given daily the different compounds orally for 21 days. The inflamed control group was given 0.2 ml PBS only. The diameter of hind pads, as well as the body weight, was then measured every other day.
In each experimental group the average value, the standard deviation (SD) and the standard error was determined for the two parameters studied (hind pad diameter and body weight). The factor variance analysis (FVA) was used to compare the values obtained in the different groups. Where statistically significant differences were observed, the Duncan-Kramer test for a p<0.05 was applied.
The area below the curves corresponding to the diameters of the right and left pads was calculated and the evolution of the difference between them were plotted (FIGS. 7 and 8). The anti-inflammatory capacity of the different substances was evaluated as the extent of inhibition of the inflammatory process that was calculated with the formula [formula]
where C is the area below the inflammed control group and T the area below the different treatment groups.

[5] = test system: PGE2 synthesis in human mucosal gastric biopsies; assay: Ex vivo PGE2 synthesis in human mucosal gastric biopsies
Description: The ability of the gastric mucosa to generate prostaglandins estimates total cyclooxygenase (COX) activity (COX-1 plus any COX-2). To measure ex vivo prostaglandin E2 (PGE2) synthesis, normal gastric mucosal biopsies were immediately placed in Ependorff tubes containing phosphate-buffered saline (PBS). […] Each mucosal gastric biopsy was cut into different pieces (about 1 mg weight) that were subsequently weighed and incubated in the absence or in the presence of the distinct agents indicated in the corresponding Table for 20 min at 37° C. in 200 μl Hepes-glucose buffer. Then cells were mucosal gastric samples were pelleted by centrifugation, lysed and intracellular PGE2 was measured using an enzyme immunoassay kit (Amersham Pharmacia Biotech, Buckinghamshire, UK) following the manufacturer's instructions. Prostaglandin synthesis is expressed as picograms of PGE2 synthesised per mg of tissue incubation. Each experiment corresponded to the use of one biopsy, in order to avoid variability among different biopsies. Normal volunteers without a previous pharmacological treatment were selected for these assays. The normal gastroduodenal mucosa was visually assessed by endoscopy.
Human mucosal gastric biopsies were cut into about 1 mg pieces, incubated with the indicted agents (10 μM) for 20 min at 37° C. in Hepes-glucose buffer, and then the intracellular content of PGE2 was determined as described in the Methods section. Untreated control samples were run in parallel. Data are shown as mean Values+S.D. from three independent experiments.

[6] = 2.5 mg/kg orally daily for 21 days
[7] = 5 mg/kg orally daily for 21 days

CCCCCCCCCCCCCCCCCCOCC(COP(=O)([O-])OCC[N+](C)(C)C)OC (centres unmarked) [IEC01, Edelfosine]
CD44 cell surface expression (rMFI) ([1]; 10 ng/ml): 97 ± 2 | CD44 cell surface expression (rMFI) ([1]; 100 ng/ml): 84 ± 4 | CD44 cell surface expression (rMFI) ([1]; 500 ng/ml): 75 ± 7 | CD44 cell surface expression (rMFI) ([1]; 1 μg/ml): 48 ± 9 | CD44 cell surface expression (rMFI) ([1]; 5 μg/ml): 40 ± 8 | concentrations toxic for neutrophils [2]: higher than 50 μg/ml | amount of O2− free radicals produced by macrophages (inhibition, in words) [3]: higher | times more efficient in inhibiting inflammation than indomethacin, at the molecular level ([4]; 2.5 mg/kg versus indomethacin 2 mg/kg, taking molecular weights into account): 2 times | Area (area below the curve of difference between right and left pad diameter) [4, 6]: 5.9 ± 0.45 A.U. | Inhibition of the inflammatory process [4, 6]: 23.5% | Area (area below the curve of difference between right and left pad diameter) [4, 7]: 7.0 ± 1.34 A.U. | Inhibition of the inflammatory process [4, 7]: 9.7% | pg PGE2/mg (weight) ([5]; human mucosal gastric biopsies, agents 10 μM, 20 min at 37° C., Control 115 ± 26, mean ± S.D., three experiments): 131 ± 29 pg PGE2/mg | effect on mucosal PGE2 synthesis (in words) ([5]; normal mucosal gastric biopsies, ex vivo): did not inhibit

Reference: patent US6583127B1, “Use of etherlysophospholipids as antiinflammatory agents” (Inkeysa. SA, priority 1998, dated 2003)
